Measurements: patent publication US12134620B2 (ARAXES PHARMA LLC, priority 2018, dated 2024)

molecular target: T1, KRAS G12C 1-169, his-tagged protein, GDP-loaded (Homo sapiens, UniProt P01116, G12C); experiment: Biochemical assay: covalent modification of KRAS G12C, analysed by mass spectrometry (RapidFire/TOF or Q-Exactive); type: binding; conditions: Modification activity, modification percentage from MS peak intensities; further: time not given here
T1 construct: KRAS G12C 1-169, his-tagged protein, GDP-loaded; His tag
Outline: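 Covalent adduct formation was quantified by intact-protein mass spectrometry, either TOF or C4 LC-Q Exactive Plus, as percent modified versus unmodified protein after deconvolution. Compounds at 8 or 32 μM final were incubated with 0.5 or 2 μM GDP-bound KRAS G12C(1-169)-His in Hepes/NaCl/MgCl2 buffer before acid quench.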

Structure (SMILES)	Binding %
C=CC(=O)N1CC2(CCN(c3nc(OC[C@@H]4CCCN4C)nc(-n4ccnc4)c3C#N)C2)C1 [Compound I-31, (S)-4-(2-acryloyl-2,6-diazaspiro[3.4]octan-6-yl)-6-(1H-imidazol-1-yl)-2-((1-methylpyrrolidin-2-yl)methoxy)pyrimidine-5-carbonitrile]	+ (+ indicates binding activity greater than 0% and up to 50%)
C=CC(=O)N1CC2(CCN(c3nc(OCc4cccc(OC)c4)nc(-c4c(C)ccc5cnn(C)c45)c3C#N)C2)C1 [Compound I-159, 4-(2-acryloyl-2,6-diazaspiro[3.4]octan-6-yl)-6-(1,6-dimethyl-1H-indazol-7-yl)-2-((3-methoxybenzyl)oxy) pyrimidine-5-carbonitrile]	++ (++ indicates binding activity from 50 to 85%)
C=CC(=O)N1CC2(CCN(c3nc(OC[C@@H]4CCCN4C)nc(-c4c(C)ccc5[nH]ncc45)c3C#N)C2)C1 [Compound I-2, 4-(2-acryloyl-2,6-diazaspiro[3.4]octan-6-yl)-6-(5-methyl-1H-indazol-4-yl)-2-(((S)-1-methylpyrrolidin-2-yl)methoxy)pyrimidine-5-carbonitrile]	+++ (+++ indicates binding activity greater than 85%)
C=CC(=O)N1CC2(CCN(c3nc(N4CCOCC4)nc(-c4c(C)ccc5cnn(C6CC6)c45)c3C#N)C2)C1 [Compound I-97, 4-(2-acryloyl-2,6-diazaspiro[3.4]octan-6-yl)-6-(1-cyclopropyl-6-methyl-1H-indazol-7-yl)-2-morpholinopyrimidine-5-carbonitrile]	+ (+ indicates binding activity greater than 0% and up to 50%)
C=CC(=O)N1CC2(CCN(c3nc(N4CCOCC4)nc(-c4c(C)ccc5[nH]ncc45)c3C#CC3CC3)C2)C1 [Compound I-190, 1-(6-(5-(cyclopropylethynyl)-6-(5-methyl-1H-indazol-4-yl)-2-morpholinopyrimidin-4-yl)-2,6-diazaspiro[3.4]octan-2-yl)prop-2-en-1-one]	+ (+ indicates binding activity greater than 0% and up to 50%)
C=CC(=O)N1CC2(CCN(c3nc(N4CCC(N5CCN(C)[C@@H](C)C5)CC4)nc(-c4c(C)ccc5cnn(C)c45)c3C#N)C2)C1 [Compound I-193, 4-(2-acryloyl-2,6-diazaspiro[3.4]octan-6-yl)-6-(1,6-dimethyl-1H-indazol-7-yl)-2-(4-((S)-3,4-dimethylpiperazin-1-yl)piperidin-1-yl)pyrimidine-5-carbonitrile]	+++ (+++ indicates binding activity greater than 85%)
C=CC(=O)N1CC2(CCN(c3nc(C(=O)N4CCOCC4)nc(-c4c(C)ccc5[nH]ncc45)c3C#N)C2)C1 [Compound I-201, 4-(2-acryloyl-2,6-diazaspiro[3.4]octan-6-yl)-6-(5-methyl-1H-indazol-4-yl)-2-(morpholine-4-carbonyl)pyrimidine-5-carbonitrile]	+ (+ indicates binding activity greater than 0% and up to 50%)
C=CC(=O)N1CC2(CCN(c3ncnc(-c4cc5cn[nH]c5cc4C)c3C#N)C2)C1 [Compound I-234, 4-(2-acryloyl-2,6-diazaspiro[3.4]octan-6-yl)-6-(6-methyl-1H-indazol-5-yl)pyrimidine-5-carbonitrile]	+ (+ indicates binding activity greater than 0% and up to 50%)
C=CC(=O)N1CC2(CCN(c3nc(-c4c(C)ccc5[nH]ncc45)c(C#N)c(N4CC(N(C)C)C4)n3)C2)C1 [Compound I-147, 2-(2-acryloyl-2,6-diazaspiro[3.4]octan-6-yl)-4-(3-(dimethylamino)azeti-din-1-yl)-6-(5-methyl-1H-indazol-4-yl)pyrimidine-5-carbonitrile]	+ (+ indicates binding activity greater than 0% and up to 50%)
C=CC(=O)N1CC2(CCN(c3nc(OC[C@@H]4CCCN4C)nc(-c4cc(-c5cn[nH]c5)ccc4F)c3C#N)C2)C1 [Compound I-115, (S)-4-(2-acryloyl-2,6-diazaspiro[3.4]octan-6-yl)-6-(2-fluoro-5-(1H-pyrazol-4-yl)phenyl)-2-((1-methylpyrrolidin-2-yl)methoxy)pyrimidine-5-carbonitrile]	+ (+ indicates binding activity greater than 0% and up to 50%)
C=CC(=O)N1CC2(CCN(c3ncnc(-c4c(C)ccc5[nH]ncc45)c3C3CC3)C2)C1 [Compound I-249, 1-(6-(5-cyclopropyl-6-(5-methyl-1H-indazol-4-yl)pyrimidin-4-yl)-2,6-diazaspiro[3.4]octan-2-yl)prop-2-en-1-one]	+ (+ indicates binding activity greater than 0% and up to 50%)
C=CC(=O)N1CC2(CCN(c3nc(N4CCCC(O)C4)nc(-c4c(C)ccc5[nH]ncc45)c3C#N)C2)C1 (stereo not drawn) [Compound I-122, 4-(2-acryloyl-2,6-diazaspiro[3.4]octan-6-yl)-2-(3-hydroxypiperidin-1-yl)-6-(5-methyl-1H-indazol-4-yl)pyrimidine-5-carbonitrile]	++ (++ indicates binding activity from 50 to 85%)
C=CC(=O)N1CC2(CCN(c3nc(OCc4cc(C(F)(F)F)ccn4)nc(-c4c(C)ccc5[nH]ncc45)c3C#N)C2)C1 [Compound I-174, 4-(2-acryloyl-2,6-diazaspiro[3.4]octan-6-yl)-6-(5-methyl-1H-indazol-4-yl)-2-((4-(trifluoromethyl)pyri-din-2-yl)methoxy)pyrimidine-5-carbonitrile]	++ (++ indicates binding activity from 50 to 85%)
C=CC(=O)N1CC2(CCN(c3nc(OC[C@@H]4CCCN4C)nc(-c4c(F)cccc4C(N)=O)c3C#N)C2)C1 [Compound I-45, 2-(6-(2-acryloyl-2,6-diazaspiro[3.4]octan-6-yl)-5-cyano-2-(((S)-1-methylpyrrolidin-2-yl)methoxy)pyrimidin-4-yl)-3-fluorobenzamide]	+ (+ indicates binding activity greater than 0% and up to 50%)
C=CC(=O)N1CC2(CCN(c3nc(N4CCOCC4)nc(-c4c(C)ccc5[nH]ncc45)c3OC)C2)C1 [Compound I-121, 1-(6-(5-methoxy-6-(5-methyl-1H-indazol-4-yl)-2-morpholinopyrimidin-4-yl)-2,6-diazaspiro[3.4]octan-2-yl)prop-2-en-1-one]	++ (++ indicates binding activity from 50 to 85%)
C=CC(=O)N1CC2(CCN(c3ncnc(-c4c(O)cccc4F)c3C#N)C2)C1 [Compound I-228, 4-(2-acryloyl-2,6-diazaspiro[3.4]octan-6-yl)-6-(2-fluoro-6-hydroxyphenyl)pyri-midine-5-carbonitrile]	+ (+ indicates binding activity greater than 0% and up to 50%)
C=CC(=O)N1CC2(CCN(c3nc(OC[C@@H]4CCCN4C)nc(-c4cnn(CCO)c4)c3C#N)C2)C1 [Compound I-35, (S)-4-(2-acryloyl-2,6-diazaspiro[3.4]octan-6-yl)-6-(1-(2-hydroxyethyl)-1H-pyrazol-4-yl)-2-((1-methylpyrrolidin-2-yl)methoxy)pyrimidine-5-carbonitrile]	+ (+ indicates binding activity greater than 0% and up to 50%)
C=CC(=O)N1CC2(CCN(c3nc(N4CCOCC4)nc(-c4c(C)ccc5[nH]nc(C)c45)c3C#N)C2)C1 [Compound I-96, 4-(2-acryloyl-2,6-diazaspiro[3.4]octan-6-yl)-6-(3,5-dimethyl-1H-indazol-4-yl)-2-morpholinopyrimidine-5-carbonitrile]	+++ (+++ indicates binding activity greater than 85%)
